Measured values taken from patent US20240383892A1, “PARTICLES OF IMIDAZO[4,5-b]PYRIDINE COMPOUND, PHARMACEUTICAL COMPOSITIONS, AND THEIR USE IN TREATING MEDICAL CONDITIONS” (Centrexion Therapeutics Corporation, priority 2023, published 2024).
Values belong to the molecule of their own block, whether it stands above or below them.

Key:
Format in all cases: physicochemical
[1] = Stability comparison of crystalline forms: temperature of dehydration
Excerpt: Stability of crystalline 3-(3-methoxy-4-((4-methoxybenzyl)oxy)benzyl)-6-(1-methyl-1H-pyrazol-4-yl)-3H-imidazo[4,5-b]pyridin-2-amine monohydrate Form 3 was compared to crystalline 3-(3-methoxy-4-((4-methoxybenzyl)oxy)benzyl)-6-(1-methyl-1H-pyrazol-4-yl)-3H-imidazo[4,5-b]pyridin-2-amine monohydrate Form 1. The physical property analyzed was temperature of dehydration. Crystalline 3-(3-methoxy-4-((4-methoxybenzyl)oxy)benzyl)-6-(1-methyl-1H-pyrazol-4-yl)-3H-imidazo[4,5-b]pyridin-2-amine monohydrate Form 1 is that described in international patent application publication WO 2016/100677.

[2] = Dynamic vapor sorption (hygroscopicity); conditions: 2 cycles of increasing and decreasing relative humidity at 25° C., FIG. 3
Method: A dynamic vapor sorption isotherm plot of crystalline 3-(3-methoxy-4-((4-methoxybenzyl)oxy)benzyl)-6-(1-methyl-1H-pyrazol-4-yl)-3H-imidazo[4,5-b]pyridin-2-amine monohydrate Form 3 is provided in FIG. 3. The dynamic vapor sorption isotherm plot results are from the procedure where after a drying stage at 0% relative humidity, compound sample was exposed to 2 cycles of increasing and decreasing relative humidity at 25° C., with steps of 5% relative humidity, where mass of the sample was recorded throughout the experiment.

[3] = Particle size analysis, Malvern Mastersizer 2000; conditions: dispersant 0.2% (w/v) Igepal in RO water
Method: Particle size analysis was performed on the particles using a Malvern Mastersizer 2000 particle size analyzer equipped with a Hydro2000S sample dispersion unit. Instrument parameters and experimental conditions are set forth below:
A 50 mg±5 mg of sample of particles was weighed and placed in a 20 mL plastic blood dilution vial. Five drops of dispersant (0.2% (w/v) Igepal in RO water) was added to the vial and mixed to a slurry using the flat end of a spatula. Dispersant (20 mL) was then added and stirred with a spatula to begin dispersion. The sample vial was placed onto a magnetic stir plate and stirred for 5 minutes. While stirring, we withdrew an aliquot of the dispersed sample using a transfer pipet and transferred it to the Hydro2000S until an obscuration of 10-30% was obtained. The sample was allowed to recirculate for 5 minutes at 2500 RPM prior to initiating the sample measurement.

temperature of dehydration ([1]; under a stream of nitrogen gas): room temperature
Compound: COc1ccc(COc2ccc(Cn3c(N)nc4cc(-c5cnn(C)c5)cnc43)cc2OC)cc1 [Form 1, 3-(3-methoxy-4-((4-methoxybenzyl)oxy)benzyl)-6-(1-methyl-1H-pyrazol-4-yl)-3H-imidazo[4,5-b]pyridin-2-amine monohydrate]

hygroscopicity (dynamic vapor sorption isotherm) [2]: not hygroscopic | temperature of dehydration ([1]; heated): 130 °C
Compound: COc1ccc(COc2ccc(Cn3c(N)nc4cc(-c5cnn(C)c5)cnc43)cc2OC)cc1 [Form 3, 3-(3-methoxy-4-((4-methoxybenzyl)oxy)benzyl)-6-(1-methyl-1H-pyrazol-4-yl)-3H-imidazo[4,5-b]pyridin-2-amine monohydrate]

Particle Size Parameter D10 [3]: 18.6 µm | Particle Size Parameter D50 [3]: 56.5 µm | Particle Size Parameter D90 [3]: 131 µm
Compound: COc1ccc(COc2ccc(Cn3c(N)nc4cc(-c5cnn(C)c5)cnc43)cc2OC)cc1 [Particles Prepared in Part I, 3-(3-methoxy-4-((4-methoxybenzyl)oxy)benzyl)-6-(1-methyl-1H-pyrazol-4-yl)-3H-imidazo[4,5-b]pyridin-2-amine monohydrate]
